Test results as given in US8143428B2, “Heteroaryl sulfones and sulfonamides and therapeutic uses thereof” (Temple University-Of The Commonwealth System of Higher …, priority 2004, dated 2012).

Assays:
Format in all cases: cell-based
[1] = test system: estrogen receptor negative breast (BT20) cell line; assay: Growth of human tumor cells in culture, BT20 (Trypan blue exclusion); details: 96 h continuous treatment, viable cells by Trypan blue exclusion
Method: (§1) The effect of compounds according to Formula I on the growth of human tumor cells in culture was evaluated using androgen receptor negative prostate (DU145), colo-rectal (DLD-1), non-small cell lung carcinoma (H157), estrogen receptor negative breast (BT20) and chronic myeloid leukemia (K562) cell lines. All cell cultures were maintained at 37° C. in a humidified atmosphere of 5% CO2.
(§2) Cells were treated with compounds according to Formula I at five different concentrations (1-100 μM range) for each compound. The dose response of each cell line was established by determining the number of viable cells after 96 h of continuous treatment against each of the different test concentrations of each compound. The determination of viable cells was done by the by the Trypan blue exclusion method. Activity for each compound at each concentration is reported as a percentage of cells that remain viable.

[2] = test system: non-small cell lung carcinoma (H157) cell line; assay: Growth of human tumor cells in culture, H157 (Trypan blue exclusion); details: viable cells by Trypan blue exclusion
Method: as §1, §2

[3] = test system: colo-rectal (DLD-1) cell line; assay: Growth of human tumor cells in culture, DLD-1 (Trypan blue exclusion); details: DLD-1 cells, 96 h continuous treatment, viable cells by Trypan blue exclusion
Method: as §1, §2

[4] = test system: androgen receptor negative prostate (DU145) cell line; assay: Growth of human tumor cells in culture, DU145 (Trypan blue exclusion); details: 96 h continuous treatment, viable cells by Trypan blue exclusion
Method: as §1, §2

JNK1 = target: T1, JNK1 (Homo sapiens, UniProt P45983); assay: Activation of Jun kinase: JNK1 immunoprecipitated from treated BT-20 cells, phosphorylation of GST-c-Jun; details: 50 and 100 μM in DMSO, 12 hours at 37° C., compared to DMSO controls
T1 construct: JNK1 in 100 μg of cell lysate was immunoprecipitated; endogenous in cells; host or cells: BT-20 cells
Method: The compounds of Examples 1, 2, 7, 8 and 9 from Table 3 were analyzed for activation of the Jun kinase signaling pathway. The selected compounds were added to BT-20 cells at concentrations of 50 and 100 μM in dimethyl sulfoxide (DMSO) and incubated for 12 hours at 37° C. The cells were harvested and lysed after 12 hours of treatment. The cell lysates were then analyzed for c-Jun kinase activity by immunoprecipitating JNK1 and assessing the ability of these immunoprecipitates to phosphorylate GST-linked c-Jun. Lysis of the cells was performed after incubation with […], using the lysis buffer [25 mM N-2-hydroxyethylpiperazine-N′-2-ethanesulfonic acid (HEPES) (pH 7.6), 0.1% Triton, 300 mM NaCl, 20 mM β-glycerophosphate, 1.5 mM MgCl2, 0.2 mM ethylenediaminetetraacetic acid (EDTA), 0.5 mM dithiothreitol (DTT), 0.2 mM Na3VO4, 100 μM phenylmethylsulfonyl fluoride (PMSF), 1 mM benzamidine, 2 μg/mL leupeptin and 4 μg/mL aprotinin]. Protein concentrations were measured using Bio-Rad protein assay reagent. JNK1 in 100 μg of cell lysate was immunoprecipitated by incubating […] of lysate protein with […] of the JNK1 polyclonal antibody (Santa Cruz Biotechnology, Inc.,) for 1 h followed by an additional incubation with […] of protein A-Sepharose (Pharmacia) for 1 h. The immune complex bound protein A-Sepharose beads were washed twice with the lysis buffer and twice with JNK buffer (20 mM HEPES, pH 7.6, 20 mM β-glycerophosphate, 10 mM MgCl2 and […] Na3VO4. The kinase reaction was carried out by resuspending the complex bound protein A-Sepharose beads in […] of JNK buffer containing […] [γ-^32P]ATP (5000 CPM/pmol) and incubating them for 20 min at 30° C. using 5 mg GST-c-Jun as substrate. The reaction was terminated by the addition of Laemmli's buffer. The samples were then boiled for 3 min. The phosphorylated GST-c-Jun was then separated on 12% SDS-PAGE. Following the separation, the gel was dried, and an autoradiogram was developed which is reproduced in FIG. 1.

[5] = test system: chronic myeloid leukemia (K562) cell line; assay: Growth of human tumor cells in culture, K562 (Trypan blue exclusion); details: 96 h continuous treatment, viable cells by Trypan blue exclusion
Method: as §1, §2

[6] = Homo sapiens, NCI-H157, 96 h continuous treatment

T1 sequence (P45983 whole entry): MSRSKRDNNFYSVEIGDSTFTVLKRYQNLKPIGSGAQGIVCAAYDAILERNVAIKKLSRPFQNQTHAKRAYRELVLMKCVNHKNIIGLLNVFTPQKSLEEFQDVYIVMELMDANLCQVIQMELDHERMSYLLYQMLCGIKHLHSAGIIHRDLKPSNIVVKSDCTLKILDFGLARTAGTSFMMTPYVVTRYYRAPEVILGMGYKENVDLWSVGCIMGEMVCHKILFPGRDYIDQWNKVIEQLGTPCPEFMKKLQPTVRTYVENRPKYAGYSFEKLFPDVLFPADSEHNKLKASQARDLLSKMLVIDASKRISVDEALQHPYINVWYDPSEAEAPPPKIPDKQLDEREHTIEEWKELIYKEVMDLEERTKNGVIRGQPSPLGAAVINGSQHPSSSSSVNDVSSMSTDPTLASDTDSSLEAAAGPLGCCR

Structure (SMILES) | GI50 ([1]; Homo sapiens, BT-20, 96 h) | GI50 [2, 6] | GI50 ([3]; Homo sapiens, DLD-1, 96 h) | GI50 ([4]; Homo sapiens, DU-145, 96 h) | c-Jun kinase activity: phosphorylation of GST-c-Jun by immunoprecipitated JNK1 (autoradiogram, FIG. 1) (JNK1) | GI50 ([5]; Homo sapiens, K562, 96 h) | GI50 [1] | GI50 ([2]; 96 h continuous treatment) | GI50 [3] | GI50 [4] | GI50 [5]
COc1ccc(NS(=O)(=O)c2cc3cc(Br)ccc3oc2=O)cc1 [Example 1, 6-Bromo-N-(4-methoxyphenyl)-2-oxo-2H-chromene-3-sulfonamide] | 16 µM | 18 µM | 20 µM | 15 µM | hyperphosphorylated | 14 µM | – | – | – | – | –
COc1ccc(NS(=O)(=O)c2cc3cc(Cl)ccc3oc2=O)cc1 [Example 2, 6-Chloro-N-(4-methoxyphenyl)-2-oxo-2H-chromene-3-sulfonamide] | 27 µM | 28 µM | 32 µM | 22 µM | hyperphosphorylated | 23 µM | – | – | – | – | –
CCOc1cccc2cc(S(=O)(=O)Nc3ccc(OC)cc3)c(=O)oc12 [Example 3, 8-Ethoxy-N-(4-methoxyphenyl)-2-oxo-2H-chromene-3-sulfonamide] | – | – | – | – | – | – | 52 µM | 74 µM | 78 µM | 57 µM | 48 µM
COc1ccc(NS(=O)(=O)c2cc3cc(Cl)ccc3oc2=O)cc1O [Example 4, 6-Chloro-N-(3-hydroxy-4-methoxyphenyl)-2-oxo-2H-chromene-3-sulfonamide] | 65 µM | 76 µM | 82 µM | 42 µM | – | 51 µM | – | – | – | – | –
CCOc1cccc2cc(S(=O)(=O)Nc3ccc(F)c(N)c3)c(=O)oc12 [Example 5, N-(3-Amino-4-fluorophenyl)-8-ethoxy-2-oxo-2H-chromene-3-sulfonamide] | 54 µM | 72 µM | 80 µM | 48 µM | – | 42 µM | – | – | – | – | –
COc1ccc2oc(=O)c(S(=O)(=O)Nc3ccc(F)c(N)c3)cc2c1 [Example 6, N-(3-Amino-4-fluorophenyl)-6-methoxy-2-oxo-2H-chromene-3-sulfonamide] | 68 µM | 78 µM | 92 µM | 56 µM | – | 44 µM | – | – | – | – | –
COc1ccc2oc(=O)c(S(=O)(=O)Nc3ccc(Br)cc3)cc2c1 [Example 7, N-(4-Bromophenyl)-6-methoxy-2-oxo-2H-chromene-3-sulfonamide] | 18 µM | 32 µM | 38 µM | 25 µM | hyperphosphorylated | 27 µM | – | – | – | – | –
CCOc1cccc2cc(S(=O)(=O)Nc3ccc(OC)cc3)c(=O)oc12 [Example 8, 8-Ethoxy-N-(4-methoxyphenyl)-2-oxo-2H-chromene-3-sulfonamide] | 64 µM | 74 µM | 85 µM | 52 µM | hyperphosphorylated | 58 µM | – | – | – | – | –
O=c1oc2c(Cl)cccc2cc1S(=O)(=O)Nc1ccc(Br)cc1 [Example 9, N-(4-Bromophenyl)-8-chloro-2-oxo-2H-chromene-3-sulfonamide] | 17 µM | 16 µM | 18 µM | 14 µM | hyperphosphorylated | 11 µM | – | – | – | – | –
O=c1oc2c(Br)cccc2cc1S(=O)(=O)Nc1ccc(Br)cc1 [Example 10, N-(4-Bromophenyl)-8-bromo-2-oxo-2H-chromene-3-sulfonamide] | 12 µM | 15 µM | 14 µM | 12 µM | – | 16 µM | – | – | – | – | –
